Some test systems named below: M14; OVCAR-8; ACHN; RXF 393; MDA-MB-435; PC-3; IGROV-1; HL-60; HCT-15; NCI/ADR-RES; NCI-H522; SF-268; BT-549; HOP-92; K562; MOLT-4; EKVX; CCRF-CEM; DU-145; SNB-19.
What all share (experiment): NCI anticancer screen, dose series, 48 h

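How tested: cells in 96-well plates exposed to compound for 48 hours at five concentrations. The concentration for 50% growth inhibition is given as GI50.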 Calls of active or inactive are those of the source. Rule as the data show it: active = GI50 up to about 1.1 µM and inactive = higher. A value given as a limit tells only on which side of the number the result lay.

For the molecule `Cc1ccc(C)n1-c1ccccc1C1C=Cn2c(=O)oc3c(OC(C)C)c(OC(C)C)c(O)c1c32` (centres undefined), the GI50 in the experiment on M14 is 22.9 µM (inactive); in the experiment with OVCAR-8, 49.1 µM (inactive); with ACHN, 33.3 µM (inactive); in the experiment with RXF 393, 7.78 µM (inactive); with MDA-MB-435 it was 6.1 µM (inactive); in the experiment on PC-3, 5.11 µM (inactive). Further, the GI50 in the experiment on IGROV-1 was 54 µM (inactive); in the experiment with HL-60, 8.75 µM (inactive); in the experiment with HCT-15, 15.7 µM; in the experiment on NCI/ADR-RES, 27.4 µM (inactive); with NCI-H522, 7.06 µM (inactive); with SF-268, 43.8 µM (inactive). Also, the GI50 in the experiment with BT-549 is 43.5 µM (inactive); in the experiment on HOP-92 it was 24.9 µM (inactive); with K562, 4.67 µM (inactive); with MOLT-4, 6.84 µM (inactive); with EKVX, 23.1 µM (inactive); in the experiment on CCRF-CEM, 18 µM (inactive). Besides, the GI50 in the experiment on DU-145 is 90.4 µM (inactive); with SNB-19, > 100 µM (inactive).

Turning to `N#CC(N)c1ccc(OCCCCCCCCCCOc2ccc(C(N)C#N)cc2)cc1` (centres undefined), the GI50 with M14 is > 100 µM (inactive); in the experiment with OVCAR-8, 44.3 µM (inactive); in the experiment with ACHN, > 100 µM (inactive); with RXF 393, 43.2 µM (inactive); with MDA-MB-435, > 100 µM (inactive); in the experiment with PC-3, > 100 µM (inactive). The GI50 with IGROV-1 was > 100 µM (inactive); in the experiment on HL-60, 52.1 µM (inactive); with HCT-15, greater than 100 µM; in the experiment with NCI/ADR-RES, 27.8 µM (inactive); in the experiment with NCI-H522, > 100 µM (inactive); in the experiment on SF-268, > 100 µM (inactive). For the same molecule, the GI50 is > 100 µM (inactive) with BT-549; > 100 µM (inactive) with HOP-92; > 100 µM (inactive) in the experiment with K562; 18.6 µM (inactive) in the experiment on MOLT-4; > 100 µM (inactive) with EKVX; 13.8 µM (inactive) with CCRF-CEM. Moreover, the GI50 in the experiment with DU-145 and in the experiment with SNB-19 was > 100 µM (inactive) in each case.

In the case of `CC(C)C(=O)CP(=O)(O)O`, the GI50 in the experiment with M14, in the experiment with OVCAR-8, in the experiment with ACHN, in the experiment on RXF 393, in the experiment on MDA-MB-435 and in the experiment with PC-3 was > 100 µM (inactive) in each case. Also, the GI50 is > 100 µM (inactive) in the experiment on IGROV-1; > 100 µM (inactive) in the experiment with HL-60; greater than 100 µM in the experiment with HCT-15; > 100 µM (inactive) with NCI/ADR-RES; > 100 µM (inactive) in the experiment with NCI-H522; > 100 µM (inactive) with SF-268. For the same molecule, the GI50 is > 100 µM (inactive) with BT-549; > 100 µM (inactive) in the experiment with HOP-92; > 100 µM (inactive) in the experiment on K562; > 100 µM (inactive) in the experiment with MOLT-4; 23.4 µM (inactive) with EKVX; > 100 µM (inactive) with CCRF-CEM. In addition, the GI50 in the experiment on DU-145 and in the experiment on SNB-19 was > 100 µM (inactive) each time.

For the molecule `O=C(O)c1cc(O)nc(S)n1`, the GI50 with M14, in the experiment with OVCAR-8, in the experiment on ACHN, with RXF 393, in the experiment on MDA-MB-435 and in the experiment with PC-3 was > 100 µM (inactive) each time. Besides, the GI50 in the experiment with IGROV-1 was > 100 µM (inactive); in the experiment on HL-60 it was > 100 µM (inactive); in the experiment with HCT-15, greater than 100 µM; in the experiment on NCI/ADR-RES, > 100 µM (inactive); in the experiment with NCI-H522, > 100 µM (inactive); in the experiment with SF-268, > 100 µM (inactive). The GI50 with BT-549, in the experiment on HOP-92, in the experiment with K562, in the experiment on MOLT-4, with EKVX and in the experiment on CCRF-CEM was > 100 µM (inactive) in each case. In addition, the GI50 in the experiment with DU-145 and in the experiment on SNB-19 was > 100 µM (inactive) throughout.

With `C=C(C)C1CC2=C(C(=O)OC)C=C(O2)C(C(=C)C)[C@@H]2OC(=O)/C(=C\C1O)[C@H]2N(C)C` (some centres undefined), the GI50 is 12.9 µM (inactive) in the experiment on M14; 10.9 µM (inactive) with OVCAR-8; 11.7 µM (inactive) in the experiment on ACHN; 5.02 µM (inactive) in the experiment with RXF 393; 9.44 µM (inactive) in the experiment with MDA-MB-435; 11.4 µM (inactive) with PC-3. The GI50 in the experiment on IGROV-1 is 6.04 µM (inactive); with HL-60, 2.82 µM (inactive); in the experiment on HCT-15 it was 5.97 µM; in the experiment on NCI/ADR-RES, 8.07 µM (inactive); in the experiment on NCI-H522 it was 2.91 µM (inactive); in the experiment on SF-268, 17 µM (inactive). Further, the GI50 with BT-549 is 9.75 µM (inactive); in the experiment with HOP-92, 6.53 µM (inactive); in the experiment with K562 it was 3.6 µM (inactive); with EKVX, 11.7 µM (inactive); with CCRF-CEM, 1.6 µM (inactive); in the experiment with DU-145, 12.1 µM (inactive). Further, the GI50 in the experiment with SNB-19 was 1.65 µM (inactive).

In the case of `CSc1nc2c(c(=O)n1C)N=C(c1ccccc1)[C@H](C(CC(=O)c1ccccc1)c1ccccc1)C(c1ccccc1)N2` (some centres undefined), the GI50 in the experiment with M14 is > 100 µM (inactive); in the experiment on OVCAR-8 it was > 100 µM (inactive); in the experiment with ACHN it was > 100 µM (inactive); in the experiment on RXF 393 it was 65.6 µM (inactive); with MDA-MB-435, > 100 µM (inactive); with PC-3, 9.84 µM (inactive). The GI50 in the experiment on IGROV-1 was > 100 µM (inactive); in the experiment on HL-60 it was 5.22 µM (inactive); in the experiment with HCT-15, greater than 100 µM; in the experiment on NCI/ADR-RES it was 76.6 µM (inactive); with NCI-H522, 20.5 µM (inactive); with BT-549, > 100 µM (inactive). For the same molecule, the GI50 in the experiment on HOP-92 is > 100 µM (inactive); with K562, 54.5 µM (inactive); in the experiment on MOLT-4, 5.94 µM (inactive); in the experiment with EKVX it was 15.8 µM (inactive); in the experiment on CCRF-CEM, 44.8 µM (inactive); in the experiment on DU-145 it was > 100 µM (inactive). In addition, the GI50 in the experiment with SNB-19 was > 100 µM (inactive).

Take `C=Cc1nc(C#N)c(N)o1`: the GI50 in the experiment on M14, in the experiment on OVCAR-8, in the experiment with RXF 393, in the experiment on MDA-MB-435, in the experiment on PC-3 and in the experiment with IGROV-1 was > 100 µM (inactive) throughout. For the same molecule, the GI50 in the experiment on HL-60 is > 100 µM (inactive); in the experiment with HCT-15 it was greater than 100 µM; in the experiment on NCI/ADR-RES it was > 100 µM (inactive); with NCI-H522, > 100 µM (inactive); in the experiment with SF-268, > 100 µM (inactive); in the experiment on BT-549, > 100 µM (inactive). Further, the GI50 in the experiment with HOP-92, with K562, in the experiment with MOLT-4, in the experiment on EKVX, in the experiment with CCRF-CEM and in the experiment on DU-145 was > 100 µM (inactive) in each case. In addition, in the experiment on SNB-19, the GI50 is > 100 µM (inactive).

With `O=C(/C=C/c1ccc2c(c1)OCO2)c1ccc(O)cc1`, the GI50 with M14 is 18.1 µM (inactive); in the experiment on OVCAR-8, 1.64 µM (inactive); with ACHN, 20.2 µM (inactive); with RXF 393, 15.6 µM (inactive); in the experiment with MDA-MB-435 it was 14.8 µM (inactive); with PC-3, 15 µM (inactive). The GI50 with IGROV-1 was 15.1 µM (inactive); with HL-60, 5.25 µM (inactive); in the experiment with HCT-15, 13.4 µM; in the experiment on NCI/ADR-RES it was 1.76 µM (inactive); in the experiment on NCI-H522, 3.01 µM (inactive); in the experiment with SF-268 it was 45.9 µM (inactive). Moreover, the GI50 in the experiment on BT-549 was 14.2 µM (inactive); with HOP-92, 14.5 µM (inactive); in the experiment on K562, 5.58 µM (inactive); in the experiment on EKVX, 16.6 µM (inactive); in the experiment with CCRF-CEM, 8.07 µM (inactive); in the experiment with DU-145, 16.5 µM (inactive). In addition, in the experiment with SNB-19, the GI50 is 16.8 µM (inactive).

For `NC(=S)Nc1ccc(S(=O)(=O)Nc2ccc(S(N)(=O)=O)cc2)cc1`, the GI50 in the experiment with M14, in the experiment with OVCAR-8, with ACHN, in the experiment on RXF 393, with MDA-MB-435 and with PC-3 was > 100 µM (inactive) each time. Further, the GI50 in the experiment with IGROV-1 was > 100 µM (inactive); in the experiment with HL-60, > 100 µM (inactive); in the experiment on HCT-15, greater than 100 µM; in the experiment with NCI/ADR-RES it was > 100 µM (inactive); in the experiment with NCI-H522, > 100 µM (inactive); in the experiment on BT-549 it was > 100 µM (inactive). The GI50 in the experiment on HOP-92, in the experiment on K562, in the experiment on MOLT-4, in the experiment with EKVX, in the experiment on CCRF-CEM and in the experiment on DU-145 was > 100 µM (inactive) throughout. In addition, in the experiment with SNB-19, the GI50 was > 100 µM (inactive).

Turning to `CC(=O)OC12C3C4C1C1C2C3C41OC(C)=O` (centres undefined), the GI50 with M14, in the experiment on OVCAR-8, with ACHN, in the experiment on RXF 393, with MDA-MB-435 and in the experiment on PC-3 was > 100 µM (inactive) throughout. For the same molecule, the GI50 with IGROV-1 was > 100 µM (inactive); with HL-60, > 100 µM (inactive); with HCT-15 it was greater than 100 µM; in the experiment with NCI/ADR-RES, > 100 µM (inactive); with NCI-H522, > 100 µM (inactive); with SF-268 it was > 100 µM (inactive). Besides, the GI50 in the experiment with BT-549, in the experiment with HOP-92, with K562, in the experiment on MOLT-4, in the experiment on EKVX and in the experiment on CCRF-CEM was > 100 µM (inactive) each time. Besides, the GI50 with DU-145 was > 100 µM (inactive).

The values are drawn from ChEMBL document CHEMBL1201862, “PubChem BioAssay data set” (2004).
